Source: paper PMC4491662, “Synthesis, Biological Evaluation and Molecular Modeling of Substituted Indeno[1,2-b]indoles as Inhibitors of Human Protein Kinase CK2” (Pharmaceuticals, 2015)

Legend:
[1] = Cytotoxicity WST-1 assay, statements over the four cell lines; type: cell-based; conditions: mouse (NIH-3T3, MEF) and human (WI-38, HEK293T), WST-1, cell line not specified, read-out: EC50 (cytotoxic activity, over the cell lines)
From the text: (§1) Four cell lines of various origins were used to evaluate the cytotoxicity of our target compounds 5–7. The selected cell lines were (i) NIH-3T3, a cell line originally established from the primary mouse embryonic fibroblast cells, (ii) MEF, primary mouse embryonic fibroblasts (used at their early passages) prepared as previously described, (iii) WI-38, a human diploid cell line derived from normal embryonic lung tissue, and (iv) HEK293T, a transformed variant of the human embryonic kidney cell line HEK293. After 96 h, cytotoxicity was evaluated using the WST-1 assay. […] Seventeen compounds were evaluated on the cell lines and then compared to TBB used as a standard. […]. All cells were grown in DMEM medium supplemented with 10% fetal calf serum, glutamine (2 mM), penicillin (100 U/mL), and streptomycin (50 μg/mL) at 37 °C under a humidified 5% CO2 atmosphere (Gibco). The assays were performed in sterile 96-wells microtiter plates (Falcon). Cells were plated at 500 (NIH-3T3), 750 (WI-38) or 1000 (MEF; HEK293T) cells/100 µL/well. Drug solutions (10 μL per well) of appropriate concentration (prepared by dilution in the culture medium from 2 mM stock acetonitrile solution) were added 24 h after cell seeding. For ellagic acid and emodin, DMSO was used to prepare the stock solution. After 96 h, the cytotoxicity is evaluated using the Cell Proliferation Reagent WST-1 following the procedure described by the manufacturer (Roche Applied Science). The drugs were assayed at 10, 5, 1, 0.2 and 0.04 µM in triplicate. The vehicle was used as control. The experiments were repeated three times.

MEF = test: Cytotoxicity WST-1 assay on MEF; type: cell-based, mouse; conditions: Mus musculus, 96 h, read-out: EC50 in µM ± SD
From the text: as §1

human CK2 holoenzyme [2] = target: T1, human CK2 holoenzyme (Homo sapiens, UniProt P68400); test: biochemical; conditions: average percent inhibition at 10 µM
NIH-3T3 = test: Cytotoxicity WST-1 assay on NIH-3T3; type: cell-based, mouse; conditions: Mus musculus, NIH3T3, 96 h, read-out: EC50 in µM ± SD
From the text: as §1

human CK2 holoenzyme [3] = target: T1, human CK2 holoenzyme; conditions: read-out: IC50 ± SD, assay buffer with 100 µM ATP
WI-38 = test: Cytotoxicity WST-1 assay on WI-38; type: cell-based, human; conditions: Homo sapiens, WI-38, 96 h, read-out: EC50 in µM ± SD
From the text: as §1

HEK293T = test: Cytotoxicity WST-1 assay on HEK293T; type: cell-based, human; conditions: Homo sapiens, HEK-293T, 96 h, read-out: EC50 in µM ± SD
From the text: as §1

[4] = tested on: tumor cell lines (5637, SISO, KYSE-70, MCF-7, LCLC, A427); conditions: cited from earlier work

T1 sequence (P68400 whole entry): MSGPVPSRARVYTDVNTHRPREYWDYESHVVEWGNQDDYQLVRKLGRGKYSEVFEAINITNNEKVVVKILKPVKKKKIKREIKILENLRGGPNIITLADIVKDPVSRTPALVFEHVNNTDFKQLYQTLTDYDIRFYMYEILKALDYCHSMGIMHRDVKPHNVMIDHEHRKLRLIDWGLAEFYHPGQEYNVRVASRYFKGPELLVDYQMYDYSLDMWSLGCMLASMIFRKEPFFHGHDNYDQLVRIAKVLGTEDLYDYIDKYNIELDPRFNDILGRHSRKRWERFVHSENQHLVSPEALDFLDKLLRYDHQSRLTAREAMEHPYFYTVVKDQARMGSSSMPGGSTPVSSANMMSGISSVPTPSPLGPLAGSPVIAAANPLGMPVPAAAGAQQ
T1 sequence (P67870 whole entry partner): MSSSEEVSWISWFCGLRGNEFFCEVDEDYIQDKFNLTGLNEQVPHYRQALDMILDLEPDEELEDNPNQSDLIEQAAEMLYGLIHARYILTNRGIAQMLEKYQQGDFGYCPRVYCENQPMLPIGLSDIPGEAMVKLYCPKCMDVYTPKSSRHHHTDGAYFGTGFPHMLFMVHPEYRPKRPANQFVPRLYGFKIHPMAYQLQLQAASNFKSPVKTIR

| SMILES | EC50 at 96 h [1] | EC50 (MEF) | inhibition at 10 µM (human CK2 holoenzyme [2]) | EC50 (NIH-3T3) | IC50 (human CK2 holoenzyme [3]) | EC50 (WI-38) | EC50 (HEK293T) | growth of tumor cell lines [4] |
| --- | --- | --- | --- | --- | --- | --- | --- | --- |
| Cc1cc(=O)c2c(c1=O)c1c(=O)c3ccccc3c1n2C(C)C [Compound 7f, 5-Isopropyl-8-methyl-5H-indeno[1,2-b]indole-6,9,10-trione] | 0.4 to 8.8 µM | > 10 µM | 72% | > 10 µM | 4.9 ± 0.54 µM | > 10 µM | 4.4 ± 2.2 µM |  |
| CC(C)n1c2c(=O)ccc(=O)c2c2c(=O)c3ccccc3c21 [Compound 7h, 5-isopropyl-5H-indeno[1,2-b]indole-6,9,10-trione] |  |  |  |  |  |  |  | inhibited the growth |
